# Laboratory results: ChEMBL document CHEMBL3885881, “DrugMatrix”
# Species: Rattus norvegicus
# Assay: DrugMatrix - Regimen: Daily Repeat
# Format: toxicity, organism-based, Sprague-Dawley
# Set-up: regimen Daily Repeat, gender Male, age 6-8 weeks
# Details: in vivo, po, route oral GAVAGE, […]; for ABSOLUTE BASOPHIL / ABSOLUTE EOSINOPHIL / ABSOLUTE LYMPHOCYTE / ABSOLUTE MONOCYTE / ABSOLUTE SEGMENTED NEUTROPHIL / BASOPHIL / EOSINOPHIL / ERYTHROCYTE COUNT / HEMATOCRIT / HEMOGLOBIN / LEUKOCYTE COUNT / LYMPHOCYTE / MEAN CORPUSCULAR HEMOGLOBIN / MEAN CORPUSCULAR HEMOGLOBIN CONCENTRATION / MEAN CORPUSCULAR VOLUME / MONOCYTE / NEUTROPHIL / NUCLEATED RED BLOOD CELLS / PLATELET COUNT: tissue Blood; for ALANINE AMINOTRANSFERASE / ALBUMIN / ALKALINE PHOSPHATASE / ASPARTATE AMINOTRANSFERASE / BLOOD UREA NITROGEN / CARBON DIOXIDE / CHLORIDE / CHOLESTEROL / CREATINE PHOSPHOKINASE / CREATININE / GLUCOSE / LACTATE DEHYDROGENASE / LIPASE / PHOSPHORUS / POTASSIUM / SODIUM / TOTAL BILIRUBIN / TOTAL PROTEIN / URIC ACID: tissue Plasma
# [1] = 0 mg/kg, 72 h, dose level Control, time 3 day
# [2] = 0 mg/kg, 120 h, dose level Control, time 5 day
# [3] = 12 mg/kg, 72 h, dose level Low, time 3 day
smiles,measurement,setting,value
CO[C@H]1/C=C/O[C@@]2(C)Oc3c(C)c(O)c4c(O)c(c(/C=N/N5CCN(C6CCCC6)CC5)c(O)c4c3C2=O)NC(=O)/C(C)=C\C=C\[C@H](C)[C@H](O)[C@@H](C)[C@@H](O)[C@@H](C)[C@H](OC(C)=O)[C@@H]1C [RIFAPENTINE],ABSOLUTE BASOPHIL,[1],0 CELLS/uL
same,ABSOLUTE EOSINOPHIL,[1],179.67 CELLS/uL
same,ABSOLUTE LYMPHOCYTE,[1],11440.17 CELLS/uL
same,ABSOLUTE MONOCYTE,[1],128.83 CELLS/uL
same,ABSOLUTE SEGMENTED NEUTROPHIL,[1],1051.33 CELLS/uL
same,BASOPHIL,[1],0%
same,EOSINOPHIL,[1],1.33%
same,ERYTHROCYTE COUNT,[1],5.53 x10E6/uL
same,HEMATOCRIT,[1],34.75%
same,HEMOGLOBIN,[1],12.88 G/DL
same,LEUKOCYTE COUNT,[1],12.8 x10E3/uL
same,LYMPHOCYTE,[1],89.5%
same,MEAN CORPUSCULAR HEMOGLOBIN,[1],23.38 pg
same,MEAN CORPUSCULAR HEMOGLOBIN CONCENTRATION,[1],37.12 G/DL
same,MEAN CORPUSCULAR VOLUME,[1],62.88 fL
same,MONOCYTE,[1],1%
same,NEUTROPHIL,[1],8.17%
same,NUCLEATED RED BLOOD CELLS,[1],0 /100WBC
same,PLATELET COUNT,[1],1292 x10E3/uL
same,ALANINE AMINOTRANSFERASE,[1],58.67 u/L
same,ALBUMIN,[1],4.25 G/DL
same,ALKALINE PHOSPHATASE,[1],437.83 u/L
same,ASPARTATE AMINOTRANSFERASE,[1],85.17 u/L
same,BLOOD UREA NITROGEN,[1],14.17 mg/dL
same,CARBON DIOXIDE,[1],28.67 mmol/L
same,CHLORIDE,[1],102.17 MEQ/L
same,CHOLESTEROL,[1],68.5 mg/dL
same,CREATINE PHOSPHOKINASE,[1],271.83 u/L
same,CREATININE,[1],0.2 mg/dL
same,GLUCOSE,[1],156.67 mg/dL
same,LACTATE DEHYDROGENASE,[1],112.33 u/L
same,LIPASE,[1],9.33 u/L
same,PHOSPHORUS,[1],11.1 mg/dL
same,POTASSIUM,[1],6.46 MEQ/L
same,SODIUM,[1],144.37 MEQ/L
same,TOTAL BILIRUBIN,[1],0.23 mg/dL
same,TOTAL PROTEIN,[1],5.8 G/DL
same,URIC ACID,[1],1.55 mg/dL
same,ABSOLUTE BASOPHIL,[2],0 CELLS/uL
same,ABSOLUTE EOSINOPHIL,[2],87 CELLS/uL
same,ABSOLUTE LYMPHOCYTE,[2],14743.5 CELLS/uL
same,ABSOLUTE MONOCYTE,[2],187 CELLS/uL
same,ABSOLUTE SEGMENTED NEUTROPHIL,[2],1499.17 CELLS/uL
same,BASOPHIL,[2],0%
same,EOSINOPHIL,[2],0.5%
same,ERYTHROCYTE COUNT,[2],5.84 x10E6/uL
same,HEMATOCRIT,[2],36.3%
same,HEMOGLOBIN,[2],13.55 G/DL
same,LEUKOCYTE COUNT,[2],16.52 x10E3/uL
same,LYMPHOCYTE,[2],89.5%
same,MEAN CORPUSCULAR HEMOGLOBIN,[2],23.25 pg
same,MEAN CORPUSCULAR HEMOGLOBIN CONCENTRATION,[2],37.35 G/DL
same,MEAN CORPUSCULAR VOLUME,[2],62.27 fL
same,MONOCYTE,[2],1.17%
same,NEUTROPHIL,[2],8.83%
same,NUCLEATED RED BLOOD CELLS,[2],0.17 /100WBC
same,PLATELET COUNT,[2],1233.5 x10E3/uL
same,ALANINE AMINOTRANSFERASE,[2],62.5 u/L
same,ALBUMIN,[2],4.17 G/DL
same,ALKALINE PHOSPHATASE,[2],464.33 u/L
same,ASPARTATE AMINOTRANSFERASE,[2],99.67 u/L
same,BLOOD UREA NITROGEN,[2],14.33 mg/dL
same,CARBON DIOXIDE,[2],26 mmol/L
same,CHLORIDE,[2],102.33 MEQ/L
same,CHOLESTEROL,[2],60.67 mg/dL
same,CREATINE PHOSPHOKINASE,[2],402.5 u/L
same,CREATININE,[2],0.22 mg/dL
same,GLUCOSE,[2],173.5 mg/dL
same,LACTATE DEHYDROGENASE,[2],518.17 u/L
same,LIPASE,[2],10.83 u/L
same,PHOSPHORUS,[2],11.4 mg/dL
same,POTASSIUM,[2],6.13 MEQ/L
same,SODIUM,[2],142.63 MEQ/L
same,TOTAL BILIRUBIN,[2],0.17 mg/dL
same,TOTAL PROTEIN,[2],6.1 G/DL
same,URIC ACID,[2],1.97 mg/dL
same,ABSOLUTE BASOPHIL,[3],0 CELLS/uL
same,ABSOLUTE EOSINOPHIL,[3],44.67 CELLS/uL
same,ABSOLUTE LYMPHOCYTE,[3],14914 CELLS/uL
same,ABSOLUTE MONOCYTE,[3],225.33 CELLS/uL
same,ABSOLUTE SEGMENTED NEUTROPHIL,[3],1216 CELLS/uL
same,BASOPHIL,[3],0%
same,EOSINOPHIL,[3],0.33%
same,ERYTHROCYTE COUNT,[3],5.83 x10E6/uL
same,HEMATOCRIT,[3],34.83%
same,HEMOGLOBIN,[3],12.73 G/DL
same,LEUKOCYTE COUNT,[3],16.4 x10E3/uL
same,LYMPHOCYTE,[3],91%
same,MEAN CORPUSCULAR HEMOGLOBIN,[3],21.83 pg
same,MEAN CORPUSCULAR HEMOGLOBIN CONCENTRATION,[3],36.57 G/DL
same,MEAN CORPUSCULAR VOLUME,[3],59.7 fL
same,MONOCYTE,[3],1.33%
same,NEUTROPHIL,[3],7.33%
same,NUCLEATED RED BLOOD CELLS,[3],0 /100WBC
same,PLATELET COUNT,[3],1540.67 x10E3/uL
same,ALANINE AMINOTRANSFERASE,[3],75 u/L
same,ALBUMIN,[3],4.13 G/DL
same,ALKALINE PHOSPHATASE,[3],400.33 u/L
same,ASPARTATE AMINOTRANSFERASE,[3],93.33 u/L
same,BLOOD UREA NITROGEN,[3],15 mg/dL
same,CARBON DIOXIDE,[3],28 mmol/L
same,CHLORIDE,[3],102 MEQ/L
same,CHOLESTEROL,[3],69.33 mg/dL
same,CREATINE PHOSPHOKINASE,[3],485.67 u/L
same,CREATININE,[3],0.15 mg/dL
same,GLUCOSE,[3],166.67 mg/dL
same,LACTATE DEHYDROGENASE,[3],138 u/L
same,LIPASE,[3],10 u/L
same,PHOSPHORUS,[3],11.53 mg/dL
same,POTASSIUM,[3],6.47 MEQ/L
same,SODIUM,[3],141.97 MEQ/L
same,TOTAL BILIRUBIN,[3],0.23 mg/dL
same,TOTAL PROTEIN,[3],5.43 G/DL
same,URIC ACID,[3],1.6 mg/dL
